This note sets out measurements from patent US8426448B2, “1,5-diphenyl-pyrrolidin-2-one compounds as CB-1 ligands” (Eli Lilly and Company, priority 2008, dated 2013).

Counter-ions that a name gives are not always drawn. A value given as a limit tells only on which side of the number the result lay.

For data set [1], the target named is T1, hCB-1 (Homo sapiens, UniProt P21554). As to the kind of experiment: hCB1-Sf9 antagonist mode SPA GTP-γ-35S binding assay. More on the design: purchased Applied Cell Sciences, Rockville, Md. The note with it: Sf9 membrane 22.7 μg; antagonist mode vs methanandamide; read-out: hCB-1 SPA GTPγS Sf9 Membrane 22.7 μg Antagonist Kb. The class given is biochemical. The protocol: (§1) Compounds of the present invention may be tested for functional activity at the CB-1 and CB-2 receptors in both agonist and antagonist modes using SPA (Scintillation Proximity Assay) based GTP-γ-^35S binding assays. All assay components are prepared in assay buffer (20 mM HEPES, 100 mM NaCl, 5 mM MgCl2, pH 7.4) at room temperature. Semi-log dilutions of test compound are prepared in assay buffer containing BSA (0.125% final conc.) for the agonist mode assays. For the antagonist mode assays, test compounds are prepared in the same manner but also include an 80% efficacious dose of a full agonist (methanandamide). GTP-γ^35S binding for the antagonist assay may be measured in a 96 well format using a modification of an antibody capture technique previously described. (DeLapp, N W, et al. (1999) J Pharmacol Exp Ther 289:946-955.) The CB-2 receptor agonist activity may be measured using a similar method using hCB2-Sf9 membranes. The CB-1 receptor agonist activity may be measured using a whole membrane capture technique using hCB1-CHO membranes. All incubations are done at room temperature. […]
T1 sequence (P21554 whole entry): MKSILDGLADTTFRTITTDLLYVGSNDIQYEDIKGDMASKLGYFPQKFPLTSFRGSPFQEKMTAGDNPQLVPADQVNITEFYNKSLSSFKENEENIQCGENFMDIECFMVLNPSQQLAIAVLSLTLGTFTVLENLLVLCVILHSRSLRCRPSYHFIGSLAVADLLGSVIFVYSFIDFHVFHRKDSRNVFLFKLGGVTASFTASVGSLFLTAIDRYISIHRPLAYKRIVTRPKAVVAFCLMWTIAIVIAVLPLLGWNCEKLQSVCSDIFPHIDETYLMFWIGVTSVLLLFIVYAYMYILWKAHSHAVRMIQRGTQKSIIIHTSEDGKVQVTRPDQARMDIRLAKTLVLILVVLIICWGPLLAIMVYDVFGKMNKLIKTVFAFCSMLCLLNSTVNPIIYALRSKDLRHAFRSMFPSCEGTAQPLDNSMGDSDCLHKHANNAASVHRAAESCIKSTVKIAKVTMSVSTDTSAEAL
(§2) Data are analyzed as follows: Background is subtracted from all wells. […] Percent antagonist inhibition is calculated by first normalizing the data to the signal generated by a saturating concentration of the full agonist (methanandamide). Then the data are analyzed using a 4-parameter logistic reduced fit (Activity Base™ and XLFit3™ from IDBS, Emeryville, Calif.). Kb values are determined using a modification of the Cheng-Prusoff relationship: Kb=IC50/(1+[agonist]/EC50), where “IC50” is determined from a four parameter fit of displacement curves, “[agonist]” is the agonist challenge concentration (nM), and “EC50” is determined from a four parameter fit of a full agonist concentration response curve (Cheng and Prusoff 1973). Mean Kb values are calculated as a mean of at least three independent determinations±standard error of the mean (SEM). […]

Data set [2] has as its target T2, hCB-2 (Homo sapiens, UniProt P34972).
T2 construct: purchased Perkin Elmer, Boston, Mass; host or cells: Sf9 cell membranes
Briefly: hCB2-Sf9 agonist mode SPA GTP-γ-35S binding assay. The class given is biochemical. Conditions: read-out: hCB-2 SPA GTPγS Sf9 Membrane Agonist Relative EC50. The protocol:
as §1
Data are analyzed as follows: Background is subtracted from all wells. […] Percent antagonist inhibition is calculated by first normalizing the data to the signal generated by a saturating concentration of the full agonist (methanandamide). […]
(GTPγS is a poorly hydrolysed GTP analogue; its binding reports G protein activation.)

For data set [3], the target named is T2, hCB-2. Briefly: hCB2-Sf9 antagonist mode SPA GTP-γ-35S binding assay. In kind it is biochemical. Conditions: antagonist mode vs methanandamide; read-out: hCB-2 SPA GTPγS Sf9 Membrane Antagonist Kb. The protocol: as §1, §2
Data set [4] has as its target T3, CYP2C9 (Homo sapiens, UniProt P11712).
T3 construct: pooled, mixed gender, human liver microsomes; from tissue; host or cells: pooled, mixed gender human liver microsomes
Briefly: Human CYP fingerprinting, sulfaphenazole inhibition. The class given is in vitro ADME. Conditions: 4 μM, human liver microsomes, 30 min, 5 μM sulfaphenazole. The protocol: (§3) CYP fingerprinting is well established technique and is used as an indication of potential risk of drug-drug interactions in the pharmaceutical sciences. Compounds of the present invention may be assayed by well known methods, essentially as follows: Compounds are incubated at 37° C. at a final concentration of 4 μM with pooled, mixed gender, human liver microsomes and 1 mM NADPH (Nicotine Adenine Dinucleotide Phosphate) (final conc.) for 0 and 30 min. without any CYP inhibitor and with each CYP inhibitor in separate incubations for 30 min. Each inhibitor is specific for an individual cytochrome P450. The specific inhibitors used for CYPs 2C9, 2D6 and 3A were sulfaphenazole, quinidine and ketoconazole, respectively. Ketoconazole (CYP3A) is made up at 25 mM in DMSO and then diluted in buffer to a final concentration of 10 μM. Quinidine (CYP2D6) is made up at 5 mM in 50/50 acetonitrile/water and then diluted in buffer to a final concentration of 10 μM. Sulfaphenazole (CYP2C9) is made up at 100 mM in DMSO and then diluted in buffer to a final concentration of 5 μM. Samples are analyzed by LC-MS in positive or negative electrospray mode using a Waters Acquity Ultra Performance LC coupled to a MicroMass Q-T of-2 mass spectrometer.
(§4) Data are analyzed using MetaboLynx™ version 4.1. […]

The target of data set [5] is T1, hCB-1. As to the kind of experiment: hCB1-CHO agonist mode SPA GTP-γ-35S binding assay. The class given is biochemical. Also noted: purchased Applied Cell Sciences, Rockville, Md; host or cells: CHO cell membranes. The protocol: (§5) Compounds of the present invention may be tested for functional activity at the CB-1 and CB-2 receptors in both agonist and antagonist modes using SPA (Scintillation Proximity Assay) based GTP-γ-^35S binding assays. All assay components are prepared in assay buffer (20 mM HEPES, 100 mM NaCl, 5 mM MgCl2, pH 7.4) at room temperature. Semi-log dilutions of test compound are prepared in assay buffer containing BSA (0.125% final conc.) for the agonist mode assays. For the antagonist mode assays, test compounds are prepared in the same manner but also include an 80% efficacious dose of a full agonist (methanandamide). GTP-γ^35S binding for the antagonist assay may be measured in a 96 well format using a modification of an antibody capture technique previously described. (DeLapp, N W, et al. (1999) J Pharmacol Exp Ther 289:946-955.) The CB-2 receptor agonist activity may be measured using a similar method using hCB2-Sf9 membranes. The CB-1 receptor agonist activity may be measured using a whole membrane capture technique using hCB1-CHO membranes. All incubations are done at room temperature.
hCB1-CHO membrane, GDP (1 μM final conc.), and saponin (10 μg/mL final conc., Sigma, St Louis, Mo.) are combined and prepared on ice as for the antagonist assays, above. Diluted test compounds, GTP-γ-^35S ([…] final conc.) and membranes are combined in the assay plate and incubated for 30 min. Then 1 mg/well Wheatgerm Agglutinin SPA beads (GE Healthcare, Piscataway, N.J.) are added, plates are sealed and vortexed and incubate for 1 hr. before spinning and counting in the same fashion as for the antagonist assays, above.
Data are analyzed as follows: Background is subtracted from all wells. Percent agonist efficacy is determine by normalizing agonist/inverse agonist dose response data to the response obtained for a full agonist (methanandamide). Percent antagonist inhibition is calculated by first normalizing the data to the signal generated by a saturating concentration of the full agonist (methanandamide). Then the data are analyzed using a 4-parameter logistic reduced fit (Activity Base™ and XLFit3™ from IDBS, Emeryville, Calif.). Kb values are determined using a modification of the Cheng-Prusoff relationship: Kb=IC50/(1+[agonist]/EC50), where “IC50” is determined from a four parameter fit of displacement curves, “[agonist]” is the agonist challenge concentration (nM), and “EC50” is determined from a four parameter fit of a full agonist concentration response curve (Cheng and Prusoff 1973). Mean Kb values are calculated as a mean of at least three independent determinations±standard error of the mean (SEM). […]

The target in data set [6] is T4, CYP2D6 (Homo sapiens, UniProt P10635).
T4 construct: pooled, mixed gender, human liver microsomes; from tissue; host or cells: pooled, mixed gender human liver microsomes
T4 sequence (P10635 whole entry): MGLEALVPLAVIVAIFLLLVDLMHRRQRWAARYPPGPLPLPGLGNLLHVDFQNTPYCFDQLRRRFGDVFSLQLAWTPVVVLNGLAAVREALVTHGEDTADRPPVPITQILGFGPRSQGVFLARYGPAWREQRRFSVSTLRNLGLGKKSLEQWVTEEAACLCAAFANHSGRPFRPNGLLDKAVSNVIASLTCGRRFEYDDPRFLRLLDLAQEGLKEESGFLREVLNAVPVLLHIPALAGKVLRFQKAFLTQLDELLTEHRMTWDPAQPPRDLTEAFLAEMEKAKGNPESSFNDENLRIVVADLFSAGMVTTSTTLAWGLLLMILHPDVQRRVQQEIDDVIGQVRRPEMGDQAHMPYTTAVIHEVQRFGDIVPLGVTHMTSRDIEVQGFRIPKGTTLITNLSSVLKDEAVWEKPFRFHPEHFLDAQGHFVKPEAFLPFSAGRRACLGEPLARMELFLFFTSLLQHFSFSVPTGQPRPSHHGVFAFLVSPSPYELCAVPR
Briefly: Human CYP fingerprinting, quinidine inhibition. In kind it is in vitro ADME. The note with it: 4 μM, human liver microsomes, 30 min, 10 μM quinidine. The protocol: as §3, §4
(Microsomes from liver hold many membrane-bound enzymes, among them those of drug oxidation.)

In data set [7] the target is T1, hCB-1. As to the kind of experiment: hCB1-CHO antagonist mode SPA GTP-γ-35S binding assay. More on the design: purchased Applied Cell Sciences, Rockville, Md; host or cells: CHO cell membranes. In kind it is biochemical. Conditions: antagonist mode vs methanandamide; read-out: hCB-1 SPA GTPγS CHO Membrane Antagonist Kb. The protocol: as §5
(§6) hCB1-CHO or rCB1-CHO membranes (Applied Cell Sciences, Rockville, Md.) and GDP (1 μM final) are added to ice cold assay buffer and homogenized. […] Plates are then centrifuged at 700×g for 10 min. and the radioactivity counted.
(§7) Data are analyzed as follows: Background is subtracted from all wells. […] Percent antagonist inhibition is calculated by first normalizing the data to the signal generated by a saturating concentration of the full agonist (methanandamide). Then the data are analyzed using a 4-parameter logistic reduced fit (Activity Base™ and XLFit3™ from IDBS, Emeryville, Calif.). Kb values are determined using a modification of the Cheng-Prusoff relationship: Kb=IC50/(1+[agonist]/EC50), where “IC50” is determined from a four parameter fit of displacement curves, “[agonist]” is the agonist challenge concentration (nM), and “EC50” is determined from a four parameter fit of a full agonist concentration response curve (Cheng and Prusoff 1973). […]

Data set [8] has as its target T5, rCB-1 (Rattus norvegicus, UniProt P20272).
T5 construct: purchased Applied Cell Sciences, Rockville, Md; host or cells: CHO cell membranes
Briefly: rCB1-CHO antagonist mode SPA GTP-γ-35S binding assay. In kind it is biochemical. Conditions: antagonist mode vs methanandamide; read-out: rCB-1 SPA GTPγS CHO Membrane Antagonist Kb. The protocol: as §5, §6, §7

The test system of data set [9] is CYP3A. As to the kind of experiment: Human CYP fingerprinting, ketoconazole inhibition. The class given is in vitro ADME. Conditions: 4 μM, human liver microsomes, 30 min, 10 μM ketoconazole. The protocol:
as §3, §4

T2 sequence (P34972 whole entry): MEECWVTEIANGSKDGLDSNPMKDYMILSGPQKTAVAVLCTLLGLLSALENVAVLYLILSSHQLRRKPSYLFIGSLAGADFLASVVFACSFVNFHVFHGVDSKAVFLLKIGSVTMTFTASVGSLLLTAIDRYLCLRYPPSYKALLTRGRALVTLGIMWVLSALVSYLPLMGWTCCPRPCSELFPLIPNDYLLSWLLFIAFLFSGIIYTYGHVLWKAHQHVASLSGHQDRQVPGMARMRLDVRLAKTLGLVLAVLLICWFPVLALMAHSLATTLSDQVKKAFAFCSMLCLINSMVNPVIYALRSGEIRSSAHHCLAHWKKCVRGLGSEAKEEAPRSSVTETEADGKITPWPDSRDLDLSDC
T3 sequence (P11712 whole entry): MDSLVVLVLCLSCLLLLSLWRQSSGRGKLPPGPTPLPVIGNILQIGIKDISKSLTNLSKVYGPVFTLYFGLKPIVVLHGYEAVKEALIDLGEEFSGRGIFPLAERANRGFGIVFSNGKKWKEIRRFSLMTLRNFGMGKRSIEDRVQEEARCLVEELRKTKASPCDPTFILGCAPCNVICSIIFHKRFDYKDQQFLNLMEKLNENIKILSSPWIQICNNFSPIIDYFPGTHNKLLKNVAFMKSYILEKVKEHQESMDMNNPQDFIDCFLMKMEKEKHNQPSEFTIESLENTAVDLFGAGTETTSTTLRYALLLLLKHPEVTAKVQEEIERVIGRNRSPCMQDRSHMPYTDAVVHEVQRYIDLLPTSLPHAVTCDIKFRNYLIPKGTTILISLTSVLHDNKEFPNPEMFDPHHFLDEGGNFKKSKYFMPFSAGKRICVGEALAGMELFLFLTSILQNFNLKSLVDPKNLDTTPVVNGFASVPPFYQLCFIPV
T5 sequence (P20272 whole entry): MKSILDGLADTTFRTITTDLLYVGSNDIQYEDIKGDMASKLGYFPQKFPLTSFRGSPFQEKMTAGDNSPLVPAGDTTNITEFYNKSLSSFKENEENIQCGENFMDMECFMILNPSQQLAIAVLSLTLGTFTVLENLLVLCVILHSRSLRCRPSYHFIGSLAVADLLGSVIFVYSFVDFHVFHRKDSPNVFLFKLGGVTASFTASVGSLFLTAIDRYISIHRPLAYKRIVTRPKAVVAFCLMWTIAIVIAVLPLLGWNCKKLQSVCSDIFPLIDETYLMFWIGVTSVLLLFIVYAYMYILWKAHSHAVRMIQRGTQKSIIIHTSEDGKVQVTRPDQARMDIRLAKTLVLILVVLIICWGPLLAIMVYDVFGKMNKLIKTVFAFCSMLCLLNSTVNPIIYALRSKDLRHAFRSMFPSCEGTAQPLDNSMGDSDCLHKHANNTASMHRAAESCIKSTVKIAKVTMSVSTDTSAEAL

Regarding `CC(C)(N[C@@H]1C[C@H](c2cccc(OC(F)(F)F)c2)N(c2ccc(C#N)cc2)C1=O)c1cccc(C(F)(F)F)n1` [27 Tosylate salt, 4-[(3R,5R)-3-[1-methyl-1-(6-trifluoromethyl-pyridin-2-yl)-ethylamino]-2-oxo-5-(3-trifluoromethoxy-phenyl)-pyrrolidin-1-yl]-benzonitrile tosylate], the Kb (in general, the equilibrium dissociation constant of an antagonist, usually derived from a functional assay) in [1] is 1.77 nM; in data set [3], more than 18400 nM; in data set [7], 0.179 nM; in data set [8] it was 0.238 nM. In addition, the EC50 (in general, the midpoint of the concentration-response curve) in data set [2] is more than 100000 nM; in data set [5] (inverse agonism, read-out: hCB-1 SPA GTPγS CHO Membrane Agonist Relative EC50 inverse) it was 0.943 nM. In data set [4], the “Risk of Drug Drug Interaction (DDI) CYP2C9” value is “low (a reduction in metabolite peak area of less than 30% (relative to the uninhibited control incubation) receives a designation of low risk of Drug Drug Interaction (DDI))”. The “hCB-1 SPA GTPγS CHO Membrane Agonist % Relative Efficacy” value in data set [5] (normalized to full agonist methanandamide) was −97.3%. Besides, in data set [6], the “Risk of Drug Drug Interaction (DDI) CYP2D6” value is “Low”. The “Risk of Drug Drug Interaction (DDI) CYP3A” value in data set [9] is reported as “Low”.
